Measured values: the CheMixHub viscosity set

Assays:
[1] = xn = mol fraction of the nth substance listed
[2] = 101 kPa

O=S(=O)([O-])NC1CCCCC1.[Cs+] + O
viscosity [mPa·s], [1], 101 kPa
Details	x1 = 0.0009023	x1 = 0.001363	x1 = 0.001814	x1 = 0.002253	x1 = 0.002731	x1 = 0.00317	x1 = 0.003611	x1 = 0.004062
293.15 K	1.024	1.036	1.047	1.058	1.071	1.082	1.093	1.105
298.15 K	0.91	0.9199	0.9302	0.9399	0.951	0.9605	0.9704	0.9807
303.15 K	0.8151	0.8242	0.8329	0.8415	0.8512	0.8595	0.8685	0.8771
313.15 K	0.6672	0.6742	0.6815	0.6879	0.6959	0.7025	0.7097	0.7163
323.15 K	0.5584	0.5642	0.5696	0.5753	0.5813	0.5866	0.5921	0.5977

CCCC[N+](CCCC)(CCCC)CCCC.[OH-] + O
viscosity [mPa·s], [1], 101 kPa
Details	x1 = 0.00178	x1 = 0.00364	x1 = 0.007655	x1 = 0.0121	x1 = 0.01706	x1 = 0.02262	x1 = 0.0289
298.15 K	1.232	1.332	1.432	2.03	2.632	3.779	4.942
303.15 K	1.088	1.173	1.258	1.697	2.233	3.129	4.045
313.15 K	0.8712	0.9342	0.9951	1.319	1.659	2.198	2.857
323.15 K	0.716	0.7632	0.8107	1.04	1.289	1.692	2.115

O=C(O)CC(O)(CC(=O)O)C(=O)O + O
viscosity [mPa·s], [1]
Details	293.15 K	298.15 K	303.15 K	308.15 K	313.15 K
100 kPa, x1 = 0.002	–	0.9112	0.8258	0.7481	0.6742
101.3 kPa, x1 = 0.00018	1.016	0.908	0.815	0.737	0.701
101.3 kPa, x1 = 0.0003607	1.025	0.917	0.822	0.741	0.675
101.3 kPa, x1 = 0.0005403	1.031	0.922	0.825	0.747	0.679

CCCCCCCCn1cc[n+](C)c1.[Cl][Fe-]([Cl])([Cl])[Cl]
[2]
Details	viscosity [mPa·s]
293.15 K	167
298.15 K	133.2
303.15 K	106
308.15 K	84.71
313.15 K	68.3
318.15 K	55.87
323.15 K	46.6

CCCCCBr + ClC(Cl)(Cl)Cl
viscosity [mPa·s], [1], 101 kPa
Details	293.15 K	303.15 K	313.15 K	323.15 K
x1 = 0.13	0.925	0.81	0.712	0.633
x1 = 0.273	0.887	0.78	0.692	0.62
x1 = 0.429	0.863	0.76	0.675	0.602
x1 = 0.601	0.841	0.742	0.66	0.592

CC(Cl)(Cl)Cl + CC(C)=O
[1], 298.15 K, 101.33 kPa
Details	viscosity [mPa·s]
x1 = 0.102	0.3356
x1 = 0.2	0.3677
x1 = 0.302	0.4042
x1 = 0.401	0.4432
x1 = 0.501	0.4862
x1 = 0.549	0.5085
x1 = 0.551	0.5098
x1 = 0.601	0.5341
x1 = 0.649	0.5591
x1 = 0.651	0.56
x1 = 0.701	0.5875
x1 = 0.75	0.6158
x1 = 0.794	0.6443
x1 = 0.852	0.6824

CC(Cl)(Cl)Cl + COCC(C)O
[1], 298.15 K, 101.33 kPa
Details	viscosity [mPa·s]
x1 = 0.101	1.508
x1 = 0.2	1.362
x1 = 0.3	1.232
x1 = 0.4	1.119
x1 = 0.501	1.021
x1 = 0.601	0.9385
x1 = 0.7	0.8715
x1 = 0.72	0.8596
x1 = 0.837	0.8044
x1 = 0.908	0.785

CC(Cl)(Cl)Cl + CCCCCOC(C)=O
[1], 303.15 K, 101.3 kPa
Details	viscosity [mPa·s]
x2 = 0.104	0.7366
x2 = 0.1989	0.7441
x2 = 0.2995	0.7518
x2 = 0.4018	0.7568
x2 = 0.5014	0.7653
x2 = 0.5996	0.7667
x2 = 0.6961	0.7663
x2 = 0.7935	0.7658
x2 = 0.8993	0.7589

CC(C)C1CCCCC1 + CCCCCCCCCCCCC
viscosity [mPa·s], [1], 100 kPa
Details	x1 = 0.1077	x1 = 0.1971	x1 = 0.3025	x1 = 0.3985	x1 = 0.5016	x1 = 0.5996	x1 = 0.695	x1 = 0.799	x1 = 0.8956
293.15 K	1.773	1.7	1.619	1.549	1.473	1.4	1.328	1.253	1.18
298.15 K	1.615	1.551	1.48	1.419	1.351	1.287	1.224	1.158	1.094
303.15 K	1.476	1.421	1.358	1.304	1.245	1.188	1.134	1.075	1.017
308.15 K	1.356	1.308	1.253	1.205	1.153	1.103	1.055	1.003	0.95
313.15 K	1.251	1.209	1.16	1.118	1.072	1.028	0.984	0.938	0.889
318.15 K	1.16	1.123	1.078	1.041	1	0.961	0.922	0.88	0.836
323.15 K	1.078	1.045	1.005	0.972	0.935	0.9	0.865	0.827	0.787
